Assay results from PMC11946187 (Viruses, 2025).
Entries after “also recorded” stand apart in the source; their conditions may differ. Like-named read-outs stand apart in the source and are kept apart here.

How the values were obtained:
[1] = target: IBV endonuclease (full-length IBV RdRp complex PA/PB1/PB2) (Influenza B virus, UniProt Q5V8Z9); experiment: biochemical
[2] = target: SFTSV endonuclease (full-length L protein) (Dabie bandavirus, UniProt I0DF35); experiment: biochemical; parameters: species or system severe fever with thrombocytopenia syndrome virus
[3] = target: SNV endonuclease (full-length L protein) (Sin Nombre orthohantavirus, UniProt A0A059WLS4); experiment: biochemical; parameters: species or system Sin Nombre virus
IBV RdRp (RNA synthesis) = assay type: biochemical, influenza B virus
[4] = target: SFTSV L protein (RNA synthesis) (Dabie bandavirus, UniProt I0DF35); assay type: biochemical, severe fever with thrombocytopenia syndrome virus
[5] = system: SNV L protein (RNA synthesis); assay type: biochemical, Sin Nombre virus

SMILES | IC50 ([1]; IC50 (μM) IBV (Figure 7B)) [µM] | IC50 ([1]; IC50, endonuclease activity of IBV) [µM] | IC50 ([2]; IC50 (μM) SFTSV (Figure 7B)) [µM] | IC50 ([2]; IC50, SFTSV endonuclease activity) [µM] | concentration from which inhibition of SNV endonuclease became evident [3] | IC50 ([3]; IC50 (μM) SNV (Figure 7B)) [µM] | IC50 ([3]; IC50, SNV endonuclease activity) [µM] | inhibition of RNA synthesis by IBV (IBV RdRp (RNA synthesis)) | inhibition of RNA synthesis by SFTSV [4] | inhibition of RNA synthesis by SNV [5] | IC50 [1] [µM]
O=C1c2c(O)c(=O)ccn2N([C@@H]2c3ccccc3SCc3c2ccc(F)c3F)[C@@H]2COCCN12 [BXA, Baloxavir acid, reference compound] | 0.21 ± 0.006 | 0.209 | 16 | 16.5 | ~ 250 µM | > 100 | 622 | lack of inhibition of; also recorded: did not inhibit RNA synthesis | lack of inhibition of; also recorded: did not inhibit RNA synthesis | lack of inhibition of; also recorded: did not inhibit RNA synthesis | 
O=C1c2c(O)c(=O)ccn2N(C2c3ccccc3SCc3c2ccc(F)c3F)C2COCCN12 [kCOT909, (R)-12-((R)-7,8-difluoro-6,11-dihydrodibenzo[b,e]thiepin-11-yl)-7-hydroxy-3,4,12,12a-tetrahydro-1H-[1,4]oxazino[3,4c]pyrido[2,1-f] [1,2,4]triazine-6,8-dione] | 0.32 ± 0.006 |  | > 100 |  |  | > 100 |  | lack of inhibition of RNA synthesis | lack of inhibition of RNA synthesis | lack of inhibition of RNA synthesis | 
O=C1c2c(O)c(=O)ccn2N([C@@H]2c3ccccc3CSc3ccccc32)[C@@H]2COCCN12 [kCOT912, (R)-12-((R)-6,11-dihydrodibenzo[b,e]thiepin-11-yl)-7-hydroxy-3,4,12,12a-tetrahydro-1H-[1,4]oxazino[3,4-c]pyrido[2,1-f][1,2,4]triazine-6,8-dione] |  |  | > 100 |  |  | > 100 |  | lack of inhibition of RNA synthesis | lack of inhibition of RNA synthesis | lack of inhibition of RNA synthesis | > 100
O=C(O)c1cn2c(c(O)c1=O)C(=O)N1CCOC[C@H]1N2[C@@H]1c2ccccc2SCc2c1ccc(F)c2F [kCOT923, (R)-12-((S)-7,8-difluoro-6,11-dihydrodibenzo[b,e]thiepin-11-yl)-7-hydroxy-6,8-dioxo-3,4,6,8,12,12a-hexahydro-1H-[1,4]oxazino[3,4-c]pyrido[2,1-f][1,2,4]triazine-9-carboxylic acid] |  |  | 41 |  |  | 13 ± 3 |  | lack of inhibition of RNA synthesis | lack of inhibition of RNA synthesis | lack of inhibition of RNA synthesis | 0.41 ± 0.02
CC(C)N1CN([C@H]2c3ccccc3SCc3c2ccc(F)c3F)n2ccc(=O)c(O)c2C1=O [kCPF855] |  |  | > 100 |  |  | > 100 |  | lack of inhibition of RNA synthesis | lack of inhibition of RNA synthesis | lack of inhibition of RNA synthesis | 0.71 ± 0.03
